Data: PubChem BioAssay (NCI)
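Values below derive from 48-hour exposures of cells grown in 96-well plates, with endpoints linearly interpolated between the two concentrations bracketing the appropriate inhibition level. GI50: concentration for 50% inhibition of growth. At the TGI there is no net growth.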

Columns and labels:
Experiment in all cases: NCI anticancer screen, dose series, 48 h
HOP-92 NSCLC = tested on: HOP-92 NSCLC
SF-295 CNS = tested on: SF-295 CNS
MDA-MB-435 = tested on: MDA-MB-435
MCF7 breast = tested on: MCF7 breast
CAKI-1 renal = tested on: CAKI-1 renal
ACHN renal = tested on: ACHN renal
RPMI-8226 leukemia = tested on: RPMI-8226 leukemia
SK-OV-3 ovarian = tested on: SK-OV-3 ovarian
HL-60(TB) leukemia = tested on: HL-60(TB) leukemia
CCRF-CEM leukemia = tested on: CCRF-CEM leukemia
KM12 colon = tested on: KM12 colon
LOX IMVI melanoma = tested on: LOX IMVI melanoma
SK-MEL-2 melanoma = tested on: SK-MEL-2 melanoma
SW-620 colon = tested on: SW-620 colon
EKVX NSCLC = tested on: EKVX NSCLC
A498 renal = tested on: A498 renal
TK-10 renal = tested on: TK-10 renal
SK-MEL-28 melanoma = tested on: SK-MEL-28 melanoma
A549 NSCLC = tested on: A549 NSCLC
MDA-MB-231 breast = tested on: MDA-MB-231 breast
RXF 393 renal = tested on: RXF 393 renal
HOP-62 NSCLC = tested on: HOP-62 NSCLC
SNB-75 CNS = tested on: SNB-75 CNS
UACC-257 melanoma = tested on: UACC-257 melanoma
OVCAR-3 ovarian = tested on: OVCAR-3 ovarian
K-562 leukemia = tested on: K-562 leukemia
NCI-H522 lung = tested on: NCI-H522 lung
MALME-3M melanoma = tested on: MALME-3M melanoma
HS 578T breast = tested on: HS 578T breast
NCI-H460 lung = tested on: NCI-H460 lung

Question: Which results are given for `CCN1CCN(c2ccc(NC(=O)Nc3ccc(-c4cc(C(=O)NC(C)C)c5ncccc5n4)cc3)cc2C(F)(F)F)CC1`?
Answer: TGI (HOP-92 NSCLC): 8290 nM; GI50 (SF-295 CNS): 581 nM; TGI (SF-295 CNS): 1140 nM; GI50 (MDA-MB-435): 650 nM; TGI (MDA-MB-435): 1310 nM; GI50 (MCF7 breast): 631 nM; TGI (MCF7 breast): 1500 nM; GI50 (CAKI-1 renal): 804 nM; TGI (CAKI-1 renal): 2080 nM; GI50 (ACHN renal): 1020 nM; TGI (ACHN renal): 3470 nM; GI50 (RPMI-8226 leukemia): 1040 nM; TGI (RPMI-8226 leukemia): 34500 nM; GI50 (SK-OV-3 ovarian): 5330 nM; TGI (SK-OV-3 ovarian): 10800 nM; GI50 (HL-60(TB) leukemia): 1070 nM; TGI (HL-60(TB) leukemia): 5890 nM; GI50 (CCRF-CEM leukemia): 1010 nM; TGI (CCRF-CEM leukemia): 3100 nM; GI50 (KM12 colon): 1010 nM; TGI (KM12 colon): 2910 nM; GI50 (LOX IMVI melanoma): 557 nM; TGI (LOX IMVI melanoma): 1050 nM; GI50 (SK-MEL-2 melanoma): 4820 nM; TGI (SK-MEL-2 melanoma): 9890 nM; GI50 (SW-620 colon): 637 nM; TGI (SW-620 colon): 1260 nM; GI50 (EKVX NSCLC): 1610 nM; TGI (EKVX NSCLC): 5820 nM; GI50 (A498 renal): 5110 nM; TGI (A498 renal): 9700 nM; GI50 (TK-10 renal): 1350 nM; TGI (TK-10 renal): 4870 nM; GI50 (SK-MEL-28 melanoma): 752 nM; TGI (SK-MEL-28 melanoma): 1850 nM; GI50 (A549 NSCLC): 1140 nM; TGI (A549 NSCLC): 5770 nM; GI50 (MDA-MB-231 breast): 610 nM; TGI (MDA-MB-231 breast): 1180 nM; GI50 (RXF 393 renal): 654 nM; TGI (RXF 393 renal): 1730 nM; GI50 (HOP-62 NSCLC): 3830 nM; TGI (HOP-62 NSCLC): 8890 nM; GI50 (SNB-75 CNS): 979 nM; TGI (SNB-75 CNS): 5140 nM; GI50 (UACC-257 melanoma): 3450 nM; TGI (UACC-257 melanoma): 8110 nM; GI50 (OVCAR-3 ovarian): 636 nM; TGI (OVCAR-3 ovarian): 1360 nM; GI50 (K-562 leukemia): 1000 nM; TGI (K-562 leukemia): 34500 nM; GI50 (NCI-H522 lung): 3520 nM; TGI (NCI-H522 lung): 8430 nM; GI50 (MALME-3M melanoma): 575 nM; TGI (MALME-3M melanoma): 1050 nM; GI50 (HS 578T breast): 880 nM; TGI (HS 578T breast): 3450 nM; GI50 (NCI-H460 lung): 617 nM; TGI (NCI-H460 lung): 1180 nM
